Data published in paper PMC10192568, “Comparison of pharmacokinetic profiles of seven major bioactive components in normal and non-alcoholic fatty liver disease (NAFLD) rats after oral administration of Ling-Gui-Zhu-Gan decoction by UPLC-MS/MS” (Frontiers in Pharmacology, 2023).
Like-named read-outs stand apart in the source and are kept apart here.

Experiments:
[1] = Pharmacokinetic study of LGZGD components in plasma of normal and NAFLD rats after oral administration (UPLC-MS/MS); format: in vivo, Male Sprague–Dawley rats; settings: for MRT last: read-out: MRT0-t
Procedure: Male Sprague–Dawley rats, weighing 200–220 g, SPF grade, were purchased from Shanghai Sippr-BK laboratory animal Co. Ltd. (Shanghai, China) and raised in the Laboratory Animal Center of Shanghai University of Traditional Chinese Medicine. The rats were kept in an environmentally controlled condition: on a 12:12 h light–dark cycle (lights on at 7:00 a.m.) with regulated temperature and humidity, at a temperature of 22°C–24°C and a relative humidity of 60–65%. In the experiment, the rats in the normal group were fed a certified standard rat diet and tap water, while those in the model group were fed a high-fat diet for 8 weeks to construct the NAFLD model (high-fat diet: 2% cholesterol, 10% lard, 0.1% sodium cholate, 10% yolk powder, and 77.9% normal diet). The animal experiment program was approved by the Animal Committee of Shanghai University of Traditional Chinese Medicine (License No.: PZSHUTCM201016001).
An Agilent 1290 UPLC system was combined with an Agilent 6460 series MS/MS system (Agilent Technologies, Santa Clara, CA, United States) to quantify the analytes in the ESI-positive ionization mode. The mass spectrum conditions were as follows: a capillary voltage of 4,000 V; a gas flow rate of 10 L/min; a nebulizer of 30 psi; a gas temperature of 350°C; and a Delta EMV(+) of 200 V. Five microliters of the samples was injected into an Agilent SB-C18 column (2.1 mm × 50 mm, 1.8 μm particles). The analytes were separated using the gradient elution method, and the mobile phase was composed of water (0.05% V/V formic acid) (A) and acetonitrile (B) at a flow rate of 0.4 mL/min (0–1 min, 10–10% B; 1–5 min, 10–90% B; 5–7 min, 90–90% B; and 7–7.1 min, B 90–10%; rebalance for 2 min).
A plasma sample of 50 µL was placed in a 1.5 mL centrifuge tube with 10 µL of schisandrin (IS) solution (50 ng/mL) and mixed for 5 min. The samples were successively extracted with 500 µL of ethyl acetate and treated with 250 µL of methanol, which were then mixed for 5 min and centrifuged at 4°C for 10 min (at 18,000 rpm). All the supernatant was absorbed into another 1.5 mL centrifuge tube, dried under a gentle stream of nitrogen at 37°C, and then added with 50 µL of 50% methanol for reconstruction. After being centrifuged at 4°C for 10 min (at 18,000 rpm), 5 µL of the supernatant was extracted and injected into a chromatographic column for analysis, and the chromatograms were recorded.
The rats were randomly divided into the normal group and the model group. According to the preliminary experiment, the dose was adjusted to about eight times the normal dose ([Gu, 2020]; [Li et al., 2023]). […] The animal research program was approved by the Animal Committee of Shanghai University of Traditional Chinese Medicine. At 0, 0.083, 0.25, 0.5, 0.75, 1, 2, 4, 6, 8, 10, 12, 24, and 48 h after dosing, 150 µL blood samples were collected from the rats' orbital venous plexus into centrifuge tubes containing 10 IU of sodium heparin. After being centrifuged at 5,000 rpm (4°C) for 10 min, the plasma was transferred to 1.5 mL polypropylene tubes and stored at −80°C until the plasma samples were analyzed.
Important pharmacokinetic parameters, which included the maximum plasma concentration (C max), time to maximum concentration (T max), half-life (t 1/2), area under the curve (AUC0-t), and total area under the curve (AUC0-∞), were hereby calculated using the DAS 3.2.8 software. Meanwhile, the pharmacokinetic data of the normal and model rats were compared using the SPSS software (version 21.0). Besides, Spearman rank bivariate correlation coefficient was used to determine the correlation between AUC values and UGT1A1 and nine other transporters. All the calculated data were expressed as mean ± SD. When p < 0.05, the difference was considered significant and statistically significant; and when p < 0.01 or <0.001, the difference was considered very significant.

[2] = Stability of the seven components in rat plasma QC samples; format: physicochemical; settings: n = 6; for Stability during 24 h at 4°C, RE: auto sampler
Procedure: Stability refers to the ability of the components to retain their chemical properties in the matrix. To analyze the stability of all components in the plasma, six replicates of QC samples at three concentrations were hereby prepared under each condition. The stability of the QC samples at three concentrations was analyzed under different storage conditions: −80°C for 30 days, after three freeze–thaw cycles, and 24 h in an auto sampler at 4°C.

[3] = NAFLD rats compared with normal rats, oral LGZGD
[4] = male, Sprague-Dawley, rat, plasma, po, 23 g/kg, Model (NAFLD) group, male SD rats, oral LGZGD extract 23 g/kg, plasma, mean ± SD, n = 6
[5] = male, Sprague-Dawley, rat, plasma, po, 23 g/kg, Normal group, male SD rats, oral LGZGD extract 23 g/kg, plasma, mean ± SD, n = 6

AUC0-∞ value decreased [1, 3]: 53.7%
C max value decreased [1, 3]: 63.8%
MRT0-t prolonged ([1]; NAFLD rats compared with the normal group, oral LGZGD): 31.2%
t 1/2 ([1]; Normal group, male SD rats, oral LGZGD extract 23 g/kg, plasma, mean ± SD, n = 6): 5.2 ± 2.5 h
AUC(0-inf) [1, 4]: 53400 ± 22100 ng·h/mL
AUC(0-t) [1, 4]: 52800 ± 22300 ng·h/mL
Cmax [1, 4]: 3740 ± 991 ng/mL
Tmax [1, 4]: 6.8 ± 4.1 h
half-life [1, 4]: 6 ± 3.4 h
MRT last [1, 4]: 10.1 ± 1.3 h
AUC(0-inf) [1, 5]: 115000 ± 32900 ng·h/mL
AUC(0-t) [1, 5]: 115000 ± 32900 ng·h/mL
Cmax [1, 5]: 10300 ± 1850 ng/mL
Tmax [1, 5]: 4.8 ± 1.1 h
MRT last [1, 5]: 7.7 ± 1.6 h
Stability during 24 h at 4°C, RE ([2]; high QC level): −3.0%
Stability during 24 h at 4°C, RE ([2]; low QC level): 1.4%
Stability during 24 h at 4°C, RE ([2]; medium QC level): 5.4%
Three freeze–thaw cycles, RE ([2]; high QC level): 4.1%
−80°C for 30 days, RE ([2]; high QC level): −1.2%
Three freeze–thaw cycles, RE ([2]; low QC level): 10.5%
−80°C for 30 days, RE ([2]; low QC level): −4.1%
Three freeze–thaw cycles, RE ([2]; medium QC level): −1.8%
−80°C for 30 days, RE ([2]; medium QC level): 3.1%
SMILES: O=C1C[C@@H](c2ccc(O[C@@H]3O[C@H](CO)[C@@H](O)[C@H](O)[C@H]3O)cc2)Oc2cc(O)ccc21 [Liquiritin, liquiritin]
